Assay results published in patent publication EP3443956A1, “A COMPOUND INCREASING ENDOCANNABINOIDS CONCENTRATION IN A SUBJECT FOR USE FOR PREVENTING AND/OR TREATING A SOCIAL BEHAVIOR DISORDER” (INSTITUT NATIONAL DE LA SANTE ET DE LA RECHERCHE MEDICALE …, priority 2017, dated 2019).
Like-named read-outs stand apart in the source and are kept apart here.

How the values were obtained:
[1] = tested on: eCB-LTD of excitatory synapses onto layer 5 mPFC pyramidal neurons; assay: Field potential recordings of eCB-LTD in mPFC slices; parameters: species or system rat
Description: (§1) Treatment was performed daily with the CB1 R receptor agonist WIN55,212-2 (0.5 mg/kg) or Delta9-Tetrahydrocannabinol (THC, 5 mg/kg) or their respective vehicles from GD 5 to GD 20. WIN55,212-2 was suspended in 5% DMSO, 5% cremophor and saline, and injected s.c. at a volume of 1 ml/kg. Control dams (Sham group) received a similar volume injection of vehicle solution. THC was suspended in 5% Ethanol, 5% cremophor and saline, and injected s.c. at a volume of 1 ml/kg.
(§2) Pups were weaned at 21 days of age. For behavioral and electrophysiological experiments male and female rats were tested at adulthood (postnatal day 90-120).
Adult male and female rats were anesthetized with isoflurane and killed as previously described (Martin and Manzoni, 2014). The brain was sliced (300 µm) in the coronal plane with a vibratome (Integraslice, Campden Instruments) in a sucrose-based solution at 4°C (in mm as follows: 87 NaCl, 75 sucrose, 25 glucose, 2.5 KCI, 4 MgCl2, 0.5 CaCl2, 23 NaHCO3 and 1.25 NaH2PO4). Immediately after cutting, slices containing the medial prefrontal cortex (PFC) or accumbens were stored for 1 h at 32°C in a low calcium ACSF that contained (in mm) as follows: 130 NaCl, 11 glucose, 2.5 KCI, 2.4 MgCl2, 1.2 CaCl2, 23 NaHCO3, 1.2 NaH2PO4, and were equilibrated with 95% 02/5% CO2 and then at room temperature until the time of recording.
Field potential recordings were made in coronal slices containing the mPFC or the accumbens as previously described (Robbe et al., 2002). During the recording, slices were placed in the recording chamber and superfused at 2 ml/min with either low Ca2+ ACSF for mPFC or normal ACSF for the accumbens. All experiments were done at 32°C or room temperature for mPFC and accumbens, respectively. The superfusion medium contained picrotoxin (100 µM) to block GABA Type A (GABA-A) receptors. All drugs were added at the final concentration to the superfusion medium.
For extracellular field experiments, the recording pipette was filled with ACSF.
Both fEPSP area and amplitude were analyzed. Stimulation was performed with a glass electrode filled with ACSF and the stimulus intensity was adjusted ∼60% of maximal intensity after performing an input-output curve (baseline EPSC amplitudes ranged between 50 and 150 pA). Stimulation frequency was set at 0.1 Hz.
The magnitude of plasticity was calculated 38-40 min after induction as percentage of baseline responses. Statistical analysis of data was performed with Prism (GraphPad Software) using tests indicated in the main text after outlier subtraction. All values are given as mean ± SEM, and statistical significance was set at p < 0.05.

adult rats = type: in vivo, rat
Description: Wistar female rats (Charles River, France) weighing 250-280 g were housed at constant room temperature (20 ± 1°C) and humidity (60%), and exposed to a light cycle of 12 h/day (08:00 a.m. to 08:00 p.m.), with food and water available ad libitum. For mating, pairs of females were placed with single male rats in the late afternoon. Vaginal smears were taken the following morning at 09:00 a.m. The day on which sperm was present was designated as the day 0 of gestation (GD 0).
as §1, §2
The test was performed in a sound attenuated chamber under dim light conditions. The testing arena consisted of a Plexiglas cage measuring 45 × 45 cm, with 2 cm of wood shavings covering the floor. Social behavior was assessed as previously described (Trezza et al., 2012).
Briefly, adult rats were individually habituated to the test cage for 5 min (adult rats) on each of the 2 days prior to testing. Before testing, adult animals were socially isolated for 24 h, respectively, to enhance their social motivation and thus facilitate the expression of social behaviors during testing. Drug treatments were counterbalanced so that cage mates were allocated to different treatment groups. […] Behavior was assessed per pair of animals and analyzed by a trained observer who was unaware of treatment condition using the Ethovision XT video tracking software (Noldus, Wageningen, The Netherlands).
The test consisted of placing two similarly treated animals into the test cage for 10 min (adult rats). In rats, a bout of social play behavior starts with one rat soliciting ('pouncing') another animal, by attempting to nose or rub the nape of its neck. The animal that is pounced upon can respond in different ways. If the animal that is pounced upon fully rotates to its dorsal surface, 'pinning' is the result, i.e., one animal lying with its dorsal surface on the floor with the other animal standing over it. From this position, the supine animal can initiate another play bout, by trying to gain access to the other animal's neck. Thus, during social play, pouncing is considered an index of play solicitation, while pinning can be regarded as the terminal component of a single play bout as well as a releaser of a prolonged play bout. Pinning and pouncing frequencies can be easily quantified and they are considered to be the most characteristic parameters of social play behavior in rats. During the social encounter, animals may also display social behaviors not directly associated with play, such as sniffing or grooming the partner's body. A pair of rats was considered as one experimental unit. […]

[2] = tested on: eCB-LTD of excitatory synapses onto medium spiny neurons (MSNs); assay: Field potential recordings of eCB-LTD in accumbens slices
[3] = Sham adult female rats, capsazepine 5 mg/Kg i.p., 30 min before testing

Question: N#Cc1cc2[nH]c(=O)c(=O)[nH]c2cc1[N+](=O)[O-] [CNQX] was tested. Which “effect on the field EPSP (fEPSP)” value ([1]; CNQX 20 µM at the end of the experiments, data not shown) did it give?
Answer: Its value is “specifically blocked the synaptic component without altering the nonsynaptic component”.

Question: Which “effect on LTD in mPFC” value ([1]; Sham adult male rats, slices preincubated for 45 min in 5 µM SR141716) does the source give for Cc1c(C(=O)NN2CCCCC2)nn(-c2ccc(Cl)cc2Cl)c1-c1ccc(Cl)cc1 [SR141716, 5-(4-chloro-phenyl)-1-(2,4-dichlorophenyl)-4-methyl-N-1-piperidinyl-1H-pyrazole-3-carboxamide] here?
Answer: Its value is “completely blocked LTD”.

Question: And the “effect on LTD of evoked EPSPs in mPFC” value ([1]; adult females exposed in utero to WIN55,212-2, slices preincubated for 45 min in 5 µM SR141716)?
Answer: Its value is “not mediated by CB1 R receptors”.

Question: What about the “block of the URB597 rescue of eCB-LTD” value ([1]; adult male rats exposed in utero to WIN55,212-2, URB597 2 µM plus SR141716 5 µM) of the same compound?
Answer: Its value is “blocked the URB597 rescue”.

Question: What about the “effect on the curating actions of URB597 on social interaction” value (adult rats; adult male rats exposed in utero to WIN55,212-2, SR141716 1 mg/kg i.p. 30 min before URB597 0.1 mg/Kg i.p.) of the same compound?
Answer: Its value is “prevented the curating actions of URB597”.

Question: And the “effect of the antagonist by itself on social interaction” value (adult rats; adult rats, SR141716 1 mg/kg i.p.)?
Answer: The value was “did not induce effects by itself”.

Question: For NC(=O)c1cccc(-c2cccc(OC(=O)NC3CCCCC3)c2)c1 [URB597, (3'-(aminocarbonyl)[1,1'-biphenyl]-3-yl)-cyclohexylcarbamate], which “restoration of eCB-LTD in the PFC” value ([1]; adult male rats exposed in utero to WIN55,212-2, slices incubated with URB597 2 µM for 45-90 min before LTD induction) is on record?
Answer: The value was “sufficient to restore eCB-LTD”.

Question: And the “social interaction (social deficits)” value (adult rats; adult male rats exposed in utero to WIN55,212-2, URB597 0.1 mg/kg i.p., 2 h before testing)?
Answer: The value was “ameliorated social deficits”.

Question: How did the “distance travelled during the test” value (adult rats; rat, in vivo) turn out when Cc1c(C(=O)c2cccc3ccccc23)c2cccc3c2n1[C@H](CN1CCOCC1)CO3 [WIN55,212-2] was run?
Answer: The value was 3779 ± 228.8 cm.

Question: And the “contact with congeners (total frequency of social interaction)” value (adult rats; rat, in vivo, sc)?
Answer: Its value is “had less contact with their congeners”.

Question: And the “time in social interactions” value (adult rats; rat, in vivo, sc)?
Answer: The value was “spent less time in social interactions”.

Question: And the “total frequency of social interaction” value (adult rats; rat, in vivo, sc)?
Answer: Its value is “no difference”.

Question: And the “total time of social interaction” value (adult rats; rat, in vivo, sc)?
Answer: Its value is “no difference”.

Question: What about the eCB-LTD in accumbens [2] of the same compound?
Answer: The eCB-LTD in accumbens was “robust eCB-LTD”.

Question: What does the source list for Oc1cc2c(cc1O)CN(C(=S)NCCc1ccc(Cl)cc1)CCC2 [capsazepine, N-[2-(4-Chlorophenyl)ethyl]-1,3,4,5-tetrahydro-7,8-dihydroxy-2H-2-benzazepine-2-carbothioamide]?
Answer: effect on LTD in mPFC ([1]; Sham adult female rats, slices preincubated for 45 min in 10 µM capsazepine): completely blocked LTD; frequency of social interaction (adult rats; [3]): reduced; total time of social interaction (adult rats; [3]): reduced; effect on the curating effects of URB597 on social interaction (adult rats; adult rats exposed in utero to WIN55,212-2, capsazepine with URB597 0.1 mg/kg i.p.): did not block the curating effects of URB597
